Series [1] in a line: Microsomal stability assay, mouse liver microsomes. As to conditions: mouse, liver microsomes, pH 7.4, mouse liver microsomes, 1 μM compound, 0.5 mg/mL protein, 37° C.; read-out: MLM +30/− NADPH: Clint (μL/min/mg protein). The format is in vitro ADME. How it is done: Microsomal stability assay is a widely used in vitro model to characterize the metabolic conversion by phase I enzymes, such as cytochrome P450 (CYP) enzymes. Since metabolism is known to be highly variable in different species, microsomal stability assay is commonly run in multiple species. Metabolic stability of testing compound can be evaluated using human, rat, mouse, or other animal liver or intestine microsomes to predict intrinsic clearance.
The assay was carried out in 96-well microtiter plates at 37° C. Reaction mixtures (25 μL) contained a final concentration of 1 μM test compound, 0.5 mg/mL liver microsomes protein, and 1 mM NADPH and/or 1 mM UDPGA (with alamethicin) in 100 mM potassium phosphate, pH 7.4 buffer with 3 mM MgCl2. The incubation was done with N=1, but duplicate incubation at each time point can be prepared if necessary. At each of the time points (for example, 0, 15, 30, and 60 minutes), 150 μL of quench solution (100% acetonitrile with 0.1% formic acid) with internal standard was transferred to each well. Besides the zero minute controls, mixtures containing the same components except the NADPH can also be prepared as the negative control. Verapamil was included as a positive control to verify assay performance. Plates were sealed, vortexed, and centrifuged at 4° C. for 15 minutes at 4000 rpm. The supernatant is transferred to fresh plates for LC/MS/MS analysis.
Summarized conditions: [Compound]=[…], [LM]=0.5 mg/mL, [NADPH]=1 mM and/or [UDPGA]=1 mM, Buffer=100 mM Potassium Phosphate, pH 7.4 with 3 mM MgCl2, Time=0, 15, 30, and 60 min, and Temperature=37° C.
(§1) All samples were analyzed on LC/MS/MS using an AB Sciex API 4000 instrument, coupled to a Shimadzu LC-20AD LC Pump system. Analytical samples were separated using a Waters Atlantis T3 dC18 reverse phase HPLC column (20 mm×2.1 mm) at a flow rate of 0.5 mL/min. The mobile phase consisted of 0.1% formic acid in water (solvent A) and 0.1% formic acid in 100% acetonitrile (solvent B).
The extent of metabolism is calculated as the disappearance of the test compound, compared to the 0-min time incubation. Initial rates are calculated for the compound concentration and used to determine half-life (t½) values and subsequently, the intrinsic clearance (Clint). Clint=(0.693)(1/t½ (min))(g of liver/kg of body weight)(mL incubation/mg of microsomal protein)(45 mg of microsomal protein/g of liver weight)

Series [2] in a line: Microsomal stability assay, human liver microsomes. Particulars: pH 7.4, 1 μM compound, 0.5 mg/mL protein, 37° C., read-out: HLM +/− NADPH: Clint (μL/min/mg protein). The format is in vitro ADME. A digest of the protocol: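 Compound at 1 μM was incubated at 37° C with 0.5 mg/mL liver microsomes and 1 mM NADPH and/or 1 mM UDPGA (with alamethicin) in 100 mM potassium phosphate pH 7.4, 3 mM MgCl2. Samples were taken at 0, 15, 30 and 60 min and measured by LC/MS/MS. t½ came from compound loss relative to 0 min, and Clint was scaled with 45 mg microsomal protein/g liver.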

The target of series [3] is T1, androgen receptor (AR) (Homo sapiens, UniProt P10275, T878A).
T1 construct: LNCaP cells were transiently transfected with the PSA (6.1 kb)-luciferase reporter for 24 h; endogenous in cells; host or cells: LNCaP
T1 sequence (P10275 1-920 T878A): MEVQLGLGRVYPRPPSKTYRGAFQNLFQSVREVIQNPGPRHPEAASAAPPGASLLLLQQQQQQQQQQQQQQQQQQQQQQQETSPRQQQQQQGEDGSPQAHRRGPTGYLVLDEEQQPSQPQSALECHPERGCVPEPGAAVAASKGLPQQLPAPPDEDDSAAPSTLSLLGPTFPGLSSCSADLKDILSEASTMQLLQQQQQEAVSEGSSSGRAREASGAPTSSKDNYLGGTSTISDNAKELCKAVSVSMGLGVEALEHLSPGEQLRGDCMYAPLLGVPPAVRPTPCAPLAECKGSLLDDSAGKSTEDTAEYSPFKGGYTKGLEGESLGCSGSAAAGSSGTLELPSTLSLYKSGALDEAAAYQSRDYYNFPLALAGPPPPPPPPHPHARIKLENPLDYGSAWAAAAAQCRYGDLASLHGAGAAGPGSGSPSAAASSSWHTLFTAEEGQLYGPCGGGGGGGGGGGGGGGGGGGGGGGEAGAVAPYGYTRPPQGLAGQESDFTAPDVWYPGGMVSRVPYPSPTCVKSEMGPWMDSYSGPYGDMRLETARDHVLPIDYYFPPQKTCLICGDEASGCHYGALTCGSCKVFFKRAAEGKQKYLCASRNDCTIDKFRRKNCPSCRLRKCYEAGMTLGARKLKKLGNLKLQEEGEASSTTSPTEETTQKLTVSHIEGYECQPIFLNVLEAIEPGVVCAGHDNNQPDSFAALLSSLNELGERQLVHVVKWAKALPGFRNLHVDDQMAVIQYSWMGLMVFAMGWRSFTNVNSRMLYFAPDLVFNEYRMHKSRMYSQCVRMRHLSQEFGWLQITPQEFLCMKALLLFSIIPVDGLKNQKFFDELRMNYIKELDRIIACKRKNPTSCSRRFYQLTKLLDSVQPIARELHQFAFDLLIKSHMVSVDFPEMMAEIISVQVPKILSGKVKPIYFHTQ
The experiment in a line: Androgen-induced PSA (6.1 kb)-luciferase reporter assay in LNCaP cells. The format is cell-based. As to conditions: LNCaP cells transfected with PSA (6.1 kb)-luciferase reporter, R1881 1 nM, 24 h; read-out: PSA-Luc IC50 Range. Put shortly:
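LNCaP cells carrying a PSA (6.1 kb) promoter-luciferase reporter with AREs; androgen-induced firefly luciferase read from lysates for 10 s. RLU normalized to protein content; IC50 calculated from the normalized data.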
In general terms: In a reporter assay the amount or activity of a reporter protein is the signal.

The nature of series [4]: Hepatocyte stability assay, mouse hepatocytes. The format is in vitro ADME. As to conditions: mouse, cryopreserved hepatocytes, 1 μM compound, 0.5 million cells/mL, 37° C., read-out: MH +/− NADPH: Clint (μL/min/million cells).
From the text: The […] of in vitro intrinsic clearance (Clint) for drug candidates in the early discovery stage is common practice in the pharmaceutical industry. The Clint values of drug candidates can help to confirm whether metabolism is the main clearance pathway when it is compared with the total body clearance in vivo. Hepatocytes are among the routinely used in vitro systems for measuring clearance. Hepatocytes have been reported to retain most of the phase I and phase II metabolic activities, and therefore, it is a useful tool to estimate the intrinsic clearance for potential drug candidates.
Metabolic stability of testing compound were be evaluated using human and mouse hepatocytes and can also be use rat, mouse, or other animal hepatocytes to predict intrinsic clearance. Cryopreserved hepatocytes were removed from the liquid nitrogen tank and thawed in a 37° C. water bath. As soon as the cells pulled away from the vial wall, they were decanted into 48 ml of warm HT medium. Cells were centrifuged for four minutes at 420 rpm (50 g). After removing the supernatant, pellet was re-suspended in warm DMEM medium. Cell density was counted by a hemacytometer.
The assay was carried out in 96-well microtiter plates. Compounds were incubated for 0, 60, 120, and 180 minutes at 37° C. with hepatocytes. Reaction mixtures (50 μL) contained a final concentration of 1 μM test compound, 0.5 million cells/mL hepatocytes in the DMEM medium. At each of the time points (for example, 0, 1, 2, and 3 hours), 200 μL of quench solution (100% acetonitrile with 0.1% formic acid) with internal standard was transferred to each well. Midazolam was included as a positive control to verify assay performance. Plates were sealed and centrifuged at 4° C. for 15 minutes at 4000 rpm. The supernatant is transferred to fresh plates for LC/MS/MS analysis.
Summarized conditions (customizable): [Compound]=[…], Positive control: midazolam and/or naloxone, [Hepatocyte]=0.5 million cells/Ml, time=0, 60, 120, and 180 min, t=37° C.
as §1
The extent of metabolism was calculated as the disappearance of the test compound, compared to the 0-min control reaction incubations. Initial rates were calculated for the compound concentration and used to determine t½ values and subsequently, the intrinsic clearance, Clint. Clint=(0.693)(1/t½(min))(mL incubation/million cells)

The values that follow come from patent publication US11059795B2, “Androgen receptor modulators and methods for their use” (ESSA Pharma, Inc., priority 2018, dated 2021).

Molecules are shown by their SMILES.

By IC50 is commonly meant the concentration that inhibits the measured activity by half. Regarding `CC(C)S(=O)(=O)c1nc(COc2ccc(C(C)(C)c3cc(Cl)c(OCCCl)c(C#N)c3)cc2)co1` [Compound A125], the microsomal CLint at 1 μM is ≥ 48 µL/min/mg in series [1] and < 12 µL/min/mg in series [2]. In addition, in series [3], the half-maximal inhibitory concentration (IC50) was < 0.5 µM. For the same compound, the hepatocyte CLint at 1 μM in series [4] was ≥ 18 µL/min/1e6 cells.
With `CC(C)(c1ccc(OCc2ncoc2S(C)(=O)=O)cc1)c1cc(Cl)c(OCCCl)c(C#N)c1` [Compound A141], the microsomal CLint at 1 μM is ≥ 48 µL/min/mg in series [1] and < 12 µL/min/mg in series [2]. Moreover, the IC50 in series [3] is < 0.5 µM. In addition, the hepatocyte CLint at 1 μM in series [4] is ≥ 18 µL/min/1e6 cells.
Turning to `CC(Oc1ccc(C(C)(C)c2cc(Cl)c(OCCCl)c(C#N)c2)cc1)c1ccnc(NS(C)(=O)=O)n1` (stereo not drawn) [Compound A98], the microsomal CLint at 1 μM in series [1] and in series [2] was < 12 µL/min/mg each time. Moreover, in series [3], the IC50 is 0.5 to 2 µM. In addition, the hepatocyte CLint at 1 μM in series [4] was < 4 µL/min/1e6 cells.
For `CC(C)(c1ccc(OCC2COC(NS(C)(=O)=O)=N2)cc1)c1ccc(OCCCl)c(C#N)c1` (stereo not drawn) [Compound A143], the microsomal CLint at 1 μM in series [1] and in series [2] was < 12 µL/min/mg throughout. The concentration for half-maximal inhibition (IC50) in series [3] was > 2 µM. Also, in series [4], the hepatocyte CLint at 1 μM was < 4 µL/min/1e6 cells.
As for `CC(C)(c1ccc(OCc2coc(NS(C)(=O)=O)n2)cc1)c1cc(Cl)c(OCCCl)c(C#N)c1` [Compound A130], the microsomal CLint at 1 μM was < 12 µL/min/mg in series [1] and 12 to 48 µL/min/mg in series [2]. Also, the IC50 in series [3] fell in the range of 0.5 to 2 µM. Further, in series [4], the hepatocyte CLint at 1 μM is < 4 µL/min/1e6 cells.
For the compound `CC(C)(c1ccc(OCc2cnc(NS(C)(=O)=O)o2)cc1)c1cc(Cl)c(OCCCl)c(C#N)c1` [Compound A133], the microsomal CLint at 1 μM in series [1] and in series [2] was ≥ 48 µL/min/mg throughout. The IC50 in series [3] is < 0.5 µM. Moreover, in series [4], the hepatocyte CLint at 1 μM was ≥ 18 µL/min/1e6 cells.
As for `Cc1nc(NS(C)(=O)=O)nc(COc2ccc(C(C)(C)c3cc(Cl)c(OCCCl)c(C#N)c3)cc2)c1C` [Compound A123], the microsomal CLint at 1 μM in series [1] was ≥ 48 µL/min/mg; in series [2], < 12 µL/min/mg. In addition, the 50% inhibitory concentration (IC50) in series [3] is < 0.5 µM. In addition, in series [4], the hepatocyte CLint at 1 μM was 4 to 18 µL/min/1e6 cells.
Taken in the same sequence, the figures for `Cc1oc(S(C)(=O)=O)nc1COc1ccc(C(C)(C)c2cc(Cl)c(OCCCl)c(C#N)c2)cc1` [Compound A80] were 12 to 48 µL/min/mg, < 12 µL/min/mg, < 0.5 µM and ≥ 18 µL/min/1e6 cells.
In the case of `CSc1ncc(COc2ccc(C(C)(C)c3cc(Cl)c(OCCCl)c(Cl)c3)cc2)o1` [Compound A111], the microsomal CLint at 1 μM in series [1] and in series [2] was 12 to 48 µL/min/mg each time. The concentration for half-maximal inhibition (IC50) in series [3] was < 0.5 µM. Moreover, the hepatocyte CLint at 1 μM in series [4] fell in the range of 4 to 18 µL/min/1e6 cells.
On to `CC(C)(c1ccc(CNc2ccnc(NS(C)(=O)=O)n2)cc1)c1cc(Cl)c(OCCCl)c(C#N)c1` [Compound A120], for which the microsomal CLint at 1 μM was < 12 µL/min/mg in series [1] and ≥ 48 µL/min/mg in series [2]. Besides, the IC50 in series [3] was > 2 µM. The hepatocyte CLint at 1 μM in series [4] is 4 to 18 µL/min/1e6 cells.
With `C[C@@H](Oc1ccc(C(C)(C)c2cc(Cl)c(OCCCl)c(C#N)c2)cc1)c1ccnc(NS(C)(=O)=O)n1` (single isomer, unassigned) [Compound A169], the microsomal CLint at 1 μM in series [1] and in series [2] was < 12 µL/min/mg each time. Also, the IC50 in series [3] was < 0.5 µM. Moreover, the hepatocyte CLint at 1 μM in series [4] was < 4 µL/min/1e6 cells.
Regarding `COc1ncc(COc2ccc(C(C)(C)c3cc(Cl)c(OCCCl)c(C#N)c3)cc2)o1` [Compound A112, 3-chloro-2-(2-chloroethoxy)-5-(2-(4-((2-methoxyoxazol-5-yl)methoxy)phenyl)propan-2-yl)benzonitrile], the results for the microsomal CLint at 1 μM in series [1] and in series [2] were 12 to 48 µL/min/mg and < 12 µL/min/mg, respectively. The concentration for half-maximal inhibition (IC50) in series [3] is < 0.5 µM. Also, the hepatocyte CLint at 1 μM in series [4] is 4 to 18 µL/min/1e6 cells.
Taken in the same sequence, the figures for `CC(C)(c1ccc(OCc2cnc(CN)o2)cc1)c1cc(Cl)c(OCCCl)c(C#N)c1` [Compound A192] were 12 to 48 µL/min/mg, 12 to 48 µL/min/mg, < 0.5 µM and ≥ 18 µL/min/1e6 cells.
For `CC(C)(c1ccc(OCc2nc(NS(C)(=O)=O)nc3c2CCC3)cc1)c1cc(Cl)c(OCCCl)c(C#N)c1` [Compound A202] the same measures were ≥ 48 µL/min/mg, < 12 µL/min/mg, 0.5 to 2 µM and ≥ 18 µL/min/1e6 cells.
On to `CC(C)(c1ccc(OCc2ocnc2S(C)(=O)=O)cc1)c1cc(Cl)c(OCC(Cl)CO)c(Cl)c1` (stereo not drawn) [Compound A97], for which the microsomal CLint at 1 μM in series [1] and in series [2] was 12 to 48 µL/min/mg each time. Further, in series [3], the IC50 is < 0.5 µM. The hepatocyte CLint at 1 μM in series [4] is ≥ 18 µL/min/1e6 cells.
